According to patent US9012419B2, “Methods and compositions related to eosinophil regulation” (University of Utah Research Foundation, priority 2006, dated 2015):
Where “and” joins values, the source holds several entries; their conditions need not be identical. Identical values can stand only once. Counter-ions that a name gives are not always drawn. Like-named read-outs stand apart in the source and are kept apart here.

B1: mepolizumab: anti-IL-5 drug (antibody, chains of the INN, looked up, V domains shown)
VH: QVTLRESGPALVKPTQTLTLTCTVSGFSLTSYSVHWVRQPPGKGLEWLGVIWASGGTDYNSALMSRLSISKDTSRNQVVLTMTNMDPVDTATYYCARDPPSSLLRLDYWGRGTPVTVSS
VL: DIVMTQSPDSLAVSLGERATINCKSSQSLLNSGNQKNYLAWYQQKPGQPPKLLIYGASTRESGVPDRFSGSGSGTDFTLTISSLQAEDVAVYYCQNVHSFPFTFGGGTKLEIK

Tests used:
[1] = tested on: IL-5 stimulated TF-1 cells; experiment: TF-1 cell proliferation assay, IL-5 stimulated cultures; assay type: cell-based, human; conditions: for Di: Di=EPO IC-50/IL5 IC-50; for IL-5 IC-50 compared with lidocaine: in words
Method: (§1) Controls and test compounds were assayed in serial dilutions, ranging from 1 mM to 0.5 uM, against TF-1 cell proliferation. Compounds were solublized in DMSO in 0.2M solutions followed by serial dilutions with the culture media.
(§2) Each dilution of the compounds was tested in triplicate in a 96 well, flat bottom tissue culture plate with 10,000 TF-1 cells per well for their abilities to inhibit IL-5 and/or EPO stimulated cultures. Wells without cells were used for the background signals. Both IL-5 and EPO stimulated cell cultures were tested in assays performed on the same day. Cultures were incubated for 72 hours in a 37° C. humidified incubator. At the end of the incubation, CellTiter AQueous One Solution (Promega, Madison, Wis.) was added for 1 to 3 hours, depending on the rate of color change. Following sufficient color change, the plates were read on a spectrophotometer (SpectraMax 190, Molecular Devices) at 490 nm.
(§3) IC-50 and […] values were calculated using the software SOFTmax Pro (Molecular Devices, Sunnyvale, Calif.).
(§4) Compounds were screened by inspecting the IC-50 values of the drug candidate on the proliferation assay. […] Potencies of the investigated compounds in inhibiting TF-1 cell proliferation were evaluated by comparing their IC-50 values relative to lidocaine. Due to the ability of TF-1 cells to be stimulated by a variety of cytokines, specificity can be evaluated by comparing IL-5 and EPO stimulated cell cultures IC-50 values. Specificity or differential inhibition (Di) values can be calculated for the investigated compounds using equation 1. Di=EPO IC-50/IL5 IC-50 (equation 1)

[2] = tested on: EPO stimulated TF-1 cells; experiment: TF-1 cell proliferation assay, EPO stimulated cultures; assay type: cell-based; conditions: Homo sapiens
Method: as §1, §2, §3, §4

[3] = nebulized, Hunt, cited from earlier work
[4] = target: T1, IL-5 (Homo sapiens, UniProt P05113); conditions: patients with mild asthma; Leckie, 2000; cited from earlier work
T1 construct: Administration of the anti-IL-5 drug, mepolizumab, to patients with mild asthma reduced blood and sputum eosinophils; host or cells: endogenous IL-5 in human patients with mild asthma (in vivo)
T1 sequence (P05113 20-134): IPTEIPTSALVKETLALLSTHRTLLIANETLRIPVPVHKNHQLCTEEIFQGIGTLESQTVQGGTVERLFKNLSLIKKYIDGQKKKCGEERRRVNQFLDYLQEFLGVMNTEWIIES

[5] = Homo sapiens, TF-1, 72 h, Table 6, TF-1 cells with IL-5 (5 ng/mL), 72 hours, read-out: IL-5 IC-50
[6] = Homo sapiens, TF-1, 72 h, Table 7, TF-1 cells with IL-5, 72 hours, read-out: IL-5 IC-50
[7] = Table 7, TF-1 cells with EPO (2 units/mL), 72 hours, read-out: EPO IC-50
[8] = Homo sapiens, TF-1, text, IL-5 stimulated TF-1 cells, read-out: IL-5 IC-50

Molecule	IC50 [1, 5] [µM]	IC50 [1, 6] [µM]	Di ([1]; Table 7)	IC50 [2, 7] [µM]	other results
Disopyramide [Compound 27, reference compound]	–	–	–	–	IC50 ([1]; Table 6, TF-1 cells with IL-5 (5 ng/mL), 72 hours, read-out: IL-5 IC-50): 129 µM
Cc1ccccc1C(=O)NCc1cccnc1 [Compound 20, 2-methyl-N-(3-pyridinylmethyl)benzamide]	90	90	1.700	153	–
C[C@@H](O)[C@H](NC(=O)c1ccccc1)C(=O)O [Compound 11, N-Benzoyl-L-Threonine]	30	–	–	–	–
CCCCOc1cc(C(=O)OCCN(CC)CC)ccc1N [Compound 24, Benoxinate, reference compound]	98	–	–	–	–
O=C(CN1CCN(c2ncccn2)CC1)Nc1ccc(F)cc1F [Compound 5, N-(2,4-difluorophenyl)-2-(4-pyrimidin-2-ylpiperazinyl)ethanamide]	5	–	–	–	IC50 [1, 8]: 5 µM
CN1CCOc2cc(C(=O)O)ccc21 [Compound 21, 4-methyl-3,4-dihydro 2H-1,4-benoxazine 7 carboxylic acid]	92	91.8	1.412	130	–
CN1CCC(=C2c3ccccc3CC(=O)c3sccc32)CC1 [Compound 3, Ketotifen fumarate, reference compound]	9	9	1.000	9	IC50 [1, 8]: 9 µM
O=C(O)COC1Cc2ccccc2CN1 (stereo not drawn) [Compound 10, 3-Carboxymethoxy-1,2,3,4-Tetrahydroisoquinol]	26	–	–	–	–
Cc1cccc(C)c1NC(=O)CCC(C)C [Compound 26, 4-methyl-N-(2,6-dimethylphenyl)-pentanamide]	119	–	–	–	IL-5 IC-50 compared with lidocaine [1]: lower than lidocaine's
Cc1cccc(C)c1NC(=O)c1ccnc2ccccc12 [Compound 9, N-(2,6-dimethylphenyl)quinoline-4-carboxamide]	24	–	–	–	IL-5 IC-50 compared with lidocaine [1]: lower than lidocaine's
c1ccc2c(c1)OCC(C1=NCCN1)O2 (stereo not drawn) [Compound 23, Idazoxan Hydrochloride, reference compound]	97	–	–	–	–
CCCCN1CCCCC1C(=O)Nc1c(C)cccc1C (stereo not drawn) [Compound 25, Bupivicaine Hydrochloride, reference compound]	107	–	–	–	–
Cc1cccc(C)c1NC(=O)Cc1ccccc1 [Compound 22, N-(2,6-dimethylphenyl)-2-phenylacetamide]	96	95.5	1.351	129	IL-5 IC-50 compared with lidocaine [1]: lower than lidocaine's
CC[N+](CC)(CC(=O)Nc1c(C)cccc1C)Cc1ccccc1 [Compound 28, Denatonium Saccharide]	136	–	–	–	–
CCN(CC)CC(=O)Nc1c(C)cccc1C.Cl [Compound 19, Lidocaine HCL, reference compound]	–	–	3.286	–	IC50 ([1]; Homo sapiens, TF-1, 72 h, read-out: IL-5 IC-50): 84 µM; IC50 ([2]; TF-1, 72 h, read-out: EPO IC-50, Table 7, TF-1 cells with EPO (2 units/mL)): 276 µM
CCCCCC(=O)Nc1c(C)cccc1C [Compound 15, N-(2,6-dimethylphenyl)hexanamide]	62	62	2.210	137	IL-5 IC-50 compared with lidocaine [1]: lower than lidocaine's
Nc1ccc(C(=O)NCc2cccnc2)cc1 [Compound 4, 4-Amino-N-pyridin-3-yl-methyl-benzamide]	1.3	1.3	1.471	1.9	IC50 [1, 8]: 1.3 µM
CC(C)(C)OC(=O)Nc1ccc(C(=O)NCC(=O)O)cc1 [Compound 6, Boc-4-aminohippuric Acid]	19	–	–	–	–
CN1CCOc2cc(Br)ccc21 [Compound 8, 7-Bromo-4-methyl-3,4-dihydro-2H-1,4-benzoxazine]	24	–	–	–	–
Cc1cccc(C)c1NC(=O)C(C)N (stereo not drawn) [Compound 14, Tocainide HCL, reference compound]	49	–	–	–	–
C[C@@H]1C[C@H]2[C@@H]3CCC4=CC(=O)C=C[C@]4(C)[C@@]3(F)[C@@H](O)C[C@]2(C)[C@@]1(O)C(=O)CO [Compound 2, Dexamethasone, reference compound]	9	7	5.136	38	Di value ([1]; EPO IC-50/IL5 IC-50): 5.136 and 5.14; IC50 [1, 8]: 4 µM
O=C(O)C1CNc2ccccc2O1 (stereo not drawn) [Compound 12, 3,4-Dihydro-2H-1,4-Benzoxazine-2-Carboxylic Acid]	38	–	–	–	–
Cc1cccc(C)c1NC(=O)C(C)(C)C [Compound 18, N-(2,6-dimethylphenyl)pivalamide]	79	–	–	–	IL-5 IC-50 compared with lidocaine [1]: lower than lidocaine's
CCN(CC)CC(=O)Nc1c(C)cccc1C [Compound 1, Lidocaine, reference compound]	147	147	1.361	200	IC50 ([1]; Homo sapiens, TF-1, text b313, TF-1 cell proliferation, read-out: IC-50 (fifty percent growth inhibition)): 147 µM; IC50 [1, 8]: 140 µM; prednisolone-dependent patients able to eliminate or significantly reduce steroid usage [3]; 1996: 17 out of 20; blood eosinophil levels ([3]; placebo controlled study, mild to moderate asthma, 2004): decreased
CC1COc2c(F)c(F)cc3c(=O)c(C(=O)O)cn1c23 (stereo not drawn) [Compound 7, 9,10-Difluoro-2,3-dihydro-3-methyl-7-oxo-7H-pyrido[1,2,3-DE]-1,4-benzoxazine-6-carboxylic acid]	20	–	–	–	–
Nc1ccc2c(c1)OCCO2 [Compound 16, 3,4-Ethylenedioxyaniline]	69	69	1.971	136	–
CCN(CC)CCOC(=O)c1ccc(N)cc1 [Compound 17, Procaine, reference compound]	71	71	1.535	109	–
CCCCOc1cc(C(=O)NCCN(CC)CC)c2ccccc2n1 [Compound 13, Dibucaine Hydrochloride, reference compound]	48	–	–	–	–
B1	–	–	–	–	blood and sputum eosinophils [4]: reduced
